Measurements taken from patent publication US10221138B2, “Biaryl derivatives as GPR120 agonists” (LG CHEM, LTD., priority 2013, dated 2019).

What follows are compounds tested against T1, hGPR120 (Homo sapiens, UniProt Q5NUL3) (assay: Measurement of activity of GPR120 agonist (cell-based calcium fluorescence assay)). Conditions: CHO-K1 cells expressing Ga16 and hGPR120, Calcium 5 dye fluorescence; activity class; read-out: EC50.
T1 construct: expressed in transfected cells; host or cells: CHO-K1
T1 sequence (Q5NUL3 1-361): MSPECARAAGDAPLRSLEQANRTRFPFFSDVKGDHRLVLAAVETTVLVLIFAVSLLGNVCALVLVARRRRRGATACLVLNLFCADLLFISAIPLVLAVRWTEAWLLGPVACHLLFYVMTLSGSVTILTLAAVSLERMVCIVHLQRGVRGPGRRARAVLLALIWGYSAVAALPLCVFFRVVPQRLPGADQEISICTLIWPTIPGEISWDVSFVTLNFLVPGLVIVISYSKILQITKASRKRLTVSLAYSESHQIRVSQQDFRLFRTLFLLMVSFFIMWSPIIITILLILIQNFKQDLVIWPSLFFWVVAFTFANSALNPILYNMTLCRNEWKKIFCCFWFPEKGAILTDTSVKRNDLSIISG
Procedure, shortened: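 CHO-K1 cells co-expressing Gα16 and hGPR120, plated 18 h, loaded with Calcium 5 dye for 1 h at 37 °C, then given serially diluted agonists (final 0.5% DMSO). Fluorescence increase expressed as relative % of the 1% DMSO-only signal.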

Row | SMILES | EC50 [nM]
1 | O=C(O)CCCSc1ccc(-c2ccccc2NC2CCCC2)cc1F [Example 160, 4-(2′-cyclopentylamino-3-fluoro-biphenyl-4-ylsulfanyl)-butyric acid] | < 200
2 | O=C(O)CCCCSc1c(F)cc(-c2cccnc2OC2CCC2)cc1F [Example 261, 5-[4-(2-cyclobutoxy-pyridin-3-yl)-2,6-difluoro-phenylsulfanyl]-pentanoic acid] | < 200
3 | O=C(O)CCCSc1ccc(-c2cc(F)ccc2NC2CCCC2)cc1 [Example 176, 4-(2′-cyclopentylamino-5′-fluoro-biphenyl-4-ylsulfanyl)-butyric acid] | < 200
4 | CC(C)Oc1cccc(-c2cc(F)c(OCCCCC(=O)O)c(F)c2)n1 [Example 238, 5-[2,6-difluoro-4-(6-isopropoxy-2-pyridyl)phenoxy]pentanoic acid] | < 200
5 | Cc1cc(-c2cccnc2SC2CCC2)cc(C)c1OCCCC(=O)O [Example 10, 4-[4-(2-cyclobutylsulfanyl-pyridin-3-yl)-2,6-dimethyl-phenoxy]-butyric acid] | < 200
6 | O=C(O)CCCOc1c(F)cc(-c2ccccc2NCC2CC2)cc1F [Example 82, 4-[4-[2-(cyclopropylmethylamino)phenyl]-2,6-difluoro-phenoxy]butanoic acid] | < 200
7 | O=C(O)CCCSc1ccc(-c2cccc(F)c2OC2CCCC2)cc1F [Example 194, 4-(2′-cyclopentyloxy-3,3′-difluoro-biphenyl-4-ylsulfanyl)-butyric acid] | > 20000
8 | CC(C)Oc1ccccc1-c1cc(F)c(OCCCC(=O)O)c(F)c1 [Example 52, 4-(3,5-difluoro-2′-isopropoxy-biphenyl-4-yloxy)-butyric acid] | 200 to 2000
9 | O=C(O)CCCOc1c(F)cc(-c2cccnc2N2CCC(F)(F)C2)cc1F [Example 215, 4-[4-[2-(3,3-difluoropyrrolidin-1-yl)-3-pyridyl]-2,6-difluoro-phenoxy]butanoic acid] | 200 to 2000
10 | CC(C)=Cc1cccc(-c2cc(F)c(OCCCC(=O)O)c(F)c2)n1 [Example 65, 4-{2,6-difluoro-4-[6-(2-methyl-propenyl)-pyridin-2-yl]-phenoxy}-butyric acid] | < 200
11 | O=C(O)CCCOc1c(F)cc(-c2ccccc2C2CCCC2)cc1F [Example 104, 4-[4-(2-cyclopentylphenyl)-2,6-difluoro-phenoxy]butanoic acid] | < 200
12 | O=C(O)CCCOc1c(F)cc(-c2ccccc2OC2CCC2)cc1F [Example 53, 4-(2′-cyclobutoxy-3,5-difluoro-biphenyl-4-yloxy)-butyric acid] | < 200
13 | O=C(O)CCCCSc1ccc(-c2cccnc2OC2CCCC2)cc1 [Example 254, 5-[4-(2-cyclopentyloxy-pyridin-3-yl)-phenylsulfanyl]-pentanoic acid] | < 200
14 | O=C(O)CCCCOc1ccc(-c2cccnc2SC2CCCC2)cc1F [Example 265, 5-[4-(2-cyclopentylsulfanyl-pyridin-3-yl)-2-fluoro-phenoxy]-pentanoic acid] | < 200
15 | CC(C)Cc1ncccc1-c1cc(F)c(OCCCC(=O)O)c(F)c1 [Example 106, 4-[2,6-difluoro-4-(2-isobutyl-3-pyridyl)phenoxy]butanoic acid] | 2000 to 20000
16 | O=C(O)CCCSc1ccc(-c2cccnc2SC2CCC2)cc1F [Example 152, 4-[4-(2-cyclobutylsulfanyl-pyridin-3-yl)-2-fluoro-phenylsulfanyl]-butyric acid] | < 200
17 | O=C(O)CCCOc1ccc(-c2ccccc2NCC2CC2)cc1 [Example 85, 4-[4-[2-(cyclopropylmethylamino)phenyl]phenoxy]butanoic acid] | 200 to 2000
18 | O=C(O)CCCOc1c(F)cc(-c2cccnc2OC2CC2)cc1F [Example 225, 4-[4-(2-cyclopropoxy-pyridin-3-yl)-2,6-difluoro-phenoxy]-butyric acid] | 200 to 2000
19 | O=C(O)CCCSc1c(F)cc(-c2cccc(OC3CCC3)n2)cc1F [Example 154, 4-[4-(6-cyclobutoxy-pyridin-2-yl)-2,6-difluoro-phenylsulfanyl]-butyric acid] | < 200
20 | O=C(O)CCCOc1c(F)cc(-c2cccc(C3CCCC3)n2)cc1F [Example 105, 4-[4-(6-cyclopentyl-2-pyridyl)-2,6-difluoro-phenoxy]butanoic acid] | < 200
21 | CC(C)Oc1cccc(-c2cc(F)c(SCC3(CC(=O)O)CC3)c(F)c2)c1 [Example 121, [1-(3,5-difluoro-3′-isopropoxy-biphenyl-4-ylsulfanylmethyl)-cyclopropyl]-acetic acid] | < 200
22 | O=C(O)CCCCOc1c(F)cc(-c2cccnc2OCC2CC2)cc1F [Example 239, 5-[4-[2-(cyclopropylmethoxy)-3-pyridyl]-2,6-difluoro-phenoxy]pentanoic acid] | < 200

Second part, the compound after the results:

Row | EC50 [nM] | SMILES
23 | < 200 | O=C(O)CCCOc1c(F)cc(-c2cccnc2OC2CCCC2)cc1F [Example 44, 4-[4-(2-cyclopentyloxy-pyridin-3-yl)-2,6-difluoro-phenoxy]-butyric acid]
24 | < 200 | O=C(O)CCCSc1c(F)cc(-c2cccc(SC3CCCC3)n2)cc1F [Example 159, 4-[4-(6-cyclopentylsulfanyl-pyridin-2-yl)-2,6-difluoro-phenylsulfanyl]-butyric acid]
25 | 2000 to 20000 | CC#CCOc1ncccc1-c1cc(F)c(OCCCC(=O)O)c(F)c1 [Example 270, 4-[4-(2-but-2-ynyloxy-pyridin-3-yl)-2,6-difluoro-phenoxy]-butyric acid]
26 | 200 to 2000 | O=C(O)CCCOc1c(F)cc(-c2cccnc2NCC2CC2)cc1F [Example 74, 4-[4-[2-(cyclopropylmethylamino)-3-pyridyl]-2,6-difluoro-phenoxy]butanoic acid]
27 | 200 to 2000 | Cc1ccc(OC2CCCC2)c(-c2ccc(SCCCC(=O)O)cc2)c1 [Example 177, 4-(2′-cyclopentyloxy-5′-methyl-biphenyl-4-ylsulfanyl)-butyric acid]
28 | < 200 | CC(C)Sc1ncccc1-c1cc(F)c(SCCCC(=O)O)c(F)c1 [Example 146, 4-[2,6-difluoro-4-(2-isopropylsulfanyl-pyridin-3-yl)-phenylsulfanyl]-butyric acid]
29 | < 200 | O=C(O)CCCSc1c(F)cc(-c2ccccc2NCC2CC2)cc1F [Example 162, 4-[2′-(cyclopropylmethyl-amino)-3,5-difluoro-biphenyl-4-ylsulfanyl]-butyric acid]
30 | < 200 | O=C(O)CCCCSc1ccc(-c2cccnc2SC2CCC2)cc1 [Example 259, 5-[4-(2-cyclobutylsulfanyl-pyridin-3-yl)-phenylsulfanyl]-pentanoic acid]
31 | < 200 | O=C(O)CCCOc1c(F)cc(-c2cccc(CC3CCC3)c2)cc1F [Example 102, 4-[4-[3-(cyclobutylmethyl)phenyl]-2,6-difluoro-phenoxy]butanoic acid]
32 | < 200 | CC(C)Sc1cccc(-c2cc(F)c(SCCCC(=O)O)c(F)c2)n1 [Example 140, 4-[2,6-difluoro-4-(6-isopropylsulfanyl-pyridin-2-yl)-phenylsulfanyl]-butyric acid]
33 | < 200 | O=C(O)CCCCSc1c(F)cc(-c2cccnc2OCC2CCC2)cc1F [Example 260, 5-[4-(2-cyclobutylmethoxy-pyridin-3-yl)-2,6-difluoro-phenylsulfanyl]-pentanoic acid]
34 | 200 to 2000 | Cc1cnc(OC2CCCC2)c(-c2ccc(SCCCC(=O)O)cc2)c1 [Example 181, 4-[4-(2-cyclopentyloxy-5-methyl-pyridin-3-yl)-phenylsulfanyl]-butyric acid]
